Active and inactive are the calls of the source.
Columns and labels:
[1] = viability of uninfected HEp-2 cells – cell-based, HTS, cytotoxicity control for RSV inhibitor project, dose response (AID 2410); type: functional; conditions: human respiratory syncytial virus
[2] = Trypanosoma cruzi growth suppression in host cells – NIH3T3 host cells, beta-gal luminescence, confirmation (AID 2044); type: functional, cell-based;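 note: intracellular parasites grown in NIH/3T3 mouse fibroblasts as host cells; luminescent beta-galactosidase reporter signal from transgenic T. cruzi replicating inside host cells; inhibitors lower the luminescence signal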
[3] = NIH3T3 cell viability loss – ATP luminescence, mouse fibroblasts, counter-screen, dose response (AID 2010); type: functional, cell-based;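 note: cells exposed to compound for about 90 hours before reading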
[4] = Luminescence Cell-Based Dose Response HTS to Identify Activators of Luciferase Translation or Activity in H4 […] Cells. [Related pubchem assays: 1829 (Project Summary), 1814 (Primary HTS)]; type: functional
[5] = Luminescence Cell-Based Dose Confirmation HTS to Identify Activators of 5'UTR Stem-Loop Driven Alpha-Synuclein mRNA Translation in H4 Neuroglioblastoma Cells. [Related pubchem assays: 1829 (Project Summary), 1814 (Primary HTS)]; type: functional
H4 = assay: Luminescence Cell-Based Dose Response HTS to Identify Activators of 5'UTR Stem-Loop Driven Prion Protein mRNA Translation in H4 Neuroglioblastoma Cells. [Related pubchem assays: 1829 (Project Summary), 1814 (Primary HTS)]; type: functional; conditions: Homo sapiens
[6] = target: T1, Replicative DNA helicase DnaB (Mycobacterium tuberculosis, UniProt P9WMR3); assay: DnaB intein splicing inhibitors, dose response, biochemical, cell-free fluorescence (AID 449749); type: functional
T1 sequence (P9WMR3 whole entry): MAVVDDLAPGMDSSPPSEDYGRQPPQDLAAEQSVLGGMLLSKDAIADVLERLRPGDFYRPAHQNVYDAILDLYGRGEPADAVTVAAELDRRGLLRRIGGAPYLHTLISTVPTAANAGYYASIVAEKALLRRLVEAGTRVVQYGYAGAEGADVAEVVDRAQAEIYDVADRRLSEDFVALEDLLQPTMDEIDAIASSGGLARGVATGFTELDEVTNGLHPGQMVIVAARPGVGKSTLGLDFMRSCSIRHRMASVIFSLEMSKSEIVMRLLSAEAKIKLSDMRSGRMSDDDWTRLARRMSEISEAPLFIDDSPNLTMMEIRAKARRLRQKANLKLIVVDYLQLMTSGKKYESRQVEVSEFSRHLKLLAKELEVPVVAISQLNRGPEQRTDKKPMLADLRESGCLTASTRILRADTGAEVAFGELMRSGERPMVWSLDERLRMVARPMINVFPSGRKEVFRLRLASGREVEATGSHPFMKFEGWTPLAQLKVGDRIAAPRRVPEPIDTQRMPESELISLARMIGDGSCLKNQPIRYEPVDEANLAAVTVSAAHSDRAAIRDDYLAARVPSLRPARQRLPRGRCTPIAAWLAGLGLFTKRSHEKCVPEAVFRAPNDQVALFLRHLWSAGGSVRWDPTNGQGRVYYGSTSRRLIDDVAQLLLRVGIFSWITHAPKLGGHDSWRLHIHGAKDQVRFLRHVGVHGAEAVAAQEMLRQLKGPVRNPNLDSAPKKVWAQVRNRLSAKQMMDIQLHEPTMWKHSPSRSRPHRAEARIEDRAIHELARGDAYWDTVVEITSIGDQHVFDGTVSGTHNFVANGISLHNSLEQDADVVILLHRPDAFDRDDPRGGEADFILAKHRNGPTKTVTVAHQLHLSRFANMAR

Protein RecA = target: T2, Protein RecA (Mycobacterium tuberculosis, UniProt P9WHJ3); assay: Fluorescence Cell-Free Homogeneous Dose Retest to Identify Inhibitors of RecA-Intein Splicing Activity. [Related pubchem assays (depositor defined):AID2097, AID2223, AID489010, AID492950]; type: functional
T2 sequence (P9WHJ3 whole entry): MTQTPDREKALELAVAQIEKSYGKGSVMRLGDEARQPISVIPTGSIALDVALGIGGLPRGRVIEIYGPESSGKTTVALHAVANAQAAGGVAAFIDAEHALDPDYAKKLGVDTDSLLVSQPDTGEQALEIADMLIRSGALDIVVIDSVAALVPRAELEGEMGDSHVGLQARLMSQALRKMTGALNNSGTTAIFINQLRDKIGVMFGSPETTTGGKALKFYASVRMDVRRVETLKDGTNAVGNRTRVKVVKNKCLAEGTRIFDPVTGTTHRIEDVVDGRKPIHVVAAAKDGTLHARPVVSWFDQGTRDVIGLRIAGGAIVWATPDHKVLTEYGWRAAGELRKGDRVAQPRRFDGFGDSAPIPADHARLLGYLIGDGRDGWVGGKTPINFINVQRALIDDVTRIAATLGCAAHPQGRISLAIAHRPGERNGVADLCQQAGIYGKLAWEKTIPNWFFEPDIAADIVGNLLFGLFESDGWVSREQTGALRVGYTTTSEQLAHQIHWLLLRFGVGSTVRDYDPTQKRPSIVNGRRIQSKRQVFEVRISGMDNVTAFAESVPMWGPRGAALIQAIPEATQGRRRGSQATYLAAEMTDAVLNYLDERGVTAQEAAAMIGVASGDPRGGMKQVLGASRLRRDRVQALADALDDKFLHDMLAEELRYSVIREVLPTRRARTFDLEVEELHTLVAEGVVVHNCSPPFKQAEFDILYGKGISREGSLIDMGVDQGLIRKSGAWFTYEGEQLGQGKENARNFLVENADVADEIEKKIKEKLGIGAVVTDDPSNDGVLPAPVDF

INS1 = assay: INS-1E survival protection against cytokine death – cell-based, luminescence, retest, dose response (AID 449756); type: functional; conditions: Rattus norvegicus;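 note: cell death triggered by IL-1 beta plus TNF-alpha plus IFN-gamma mixture; protective hits raise ATP signal compared with cytokine alone wells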
Cytochrome P450 1A2 = target: T3, Cytochrome P450 1A2 (Homo sapiens, UniProt P05177);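 note: PubChem cytochrome P450 panel assay, CYP1A2 panel member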
T3 sequence (P05177 whole entry): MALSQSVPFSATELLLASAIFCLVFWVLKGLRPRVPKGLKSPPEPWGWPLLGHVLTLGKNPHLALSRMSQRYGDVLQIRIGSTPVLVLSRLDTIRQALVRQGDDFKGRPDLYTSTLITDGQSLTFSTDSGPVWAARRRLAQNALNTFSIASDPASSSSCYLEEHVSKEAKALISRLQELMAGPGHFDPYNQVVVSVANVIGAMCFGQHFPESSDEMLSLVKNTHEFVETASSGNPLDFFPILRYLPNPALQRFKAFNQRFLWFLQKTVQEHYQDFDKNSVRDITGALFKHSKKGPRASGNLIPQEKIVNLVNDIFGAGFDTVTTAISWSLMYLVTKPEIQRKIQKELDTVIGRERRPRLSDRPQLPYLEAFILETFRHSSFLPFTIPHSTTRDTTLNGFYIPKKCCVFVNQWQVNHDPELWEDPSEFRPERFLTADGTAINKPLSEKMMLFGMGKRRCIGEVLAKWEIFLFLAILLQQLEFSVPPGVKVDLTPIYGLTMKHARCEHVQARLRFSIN

Cytochrome P450 2C19 = Cytochrome P450 2C19 (Homo sapiens, UniProt P33261); assay: Cytochrome panel assay with activity outcomes. Panel member name: p450-cyp2c19 Compounds with AC50 equal or less than 10 uM are considered active; type: functional; conditions: read-out: AC50
Chain of Cytochrome P450 2C19 (P33261 whole entry): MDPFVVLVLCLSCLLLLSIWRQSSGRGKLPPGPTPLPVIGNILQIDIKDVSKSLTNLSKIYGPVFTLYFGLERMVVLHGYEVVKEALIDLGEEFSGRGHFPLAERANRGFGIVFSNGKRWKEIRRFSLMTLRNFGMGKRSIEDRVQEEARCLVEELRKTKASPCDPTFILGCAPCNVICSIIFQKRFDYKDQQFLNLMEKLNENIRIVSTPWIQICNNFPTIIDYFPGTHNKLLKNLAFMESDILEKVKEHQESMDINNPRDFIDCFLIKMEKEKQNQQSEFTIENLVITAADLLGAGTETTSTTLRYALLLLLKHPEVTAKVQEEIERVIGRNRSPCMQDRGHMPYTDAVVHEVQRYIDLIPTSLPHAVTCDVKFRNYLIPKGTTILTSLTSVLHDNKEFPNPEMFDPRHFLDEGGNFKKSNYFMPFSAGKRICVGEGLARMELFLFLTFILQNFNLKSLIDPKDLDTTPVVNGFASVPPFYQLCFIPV

Cytochrome P450 3A4 = Cytochrome P450 3A4 (Homo sapiens, UniProt P08684);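 note: CYP3A4 tested as one member of a cytochrome P450 panel screen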
Chain of Cytochrome P450 3A4 (P08684 whole entry): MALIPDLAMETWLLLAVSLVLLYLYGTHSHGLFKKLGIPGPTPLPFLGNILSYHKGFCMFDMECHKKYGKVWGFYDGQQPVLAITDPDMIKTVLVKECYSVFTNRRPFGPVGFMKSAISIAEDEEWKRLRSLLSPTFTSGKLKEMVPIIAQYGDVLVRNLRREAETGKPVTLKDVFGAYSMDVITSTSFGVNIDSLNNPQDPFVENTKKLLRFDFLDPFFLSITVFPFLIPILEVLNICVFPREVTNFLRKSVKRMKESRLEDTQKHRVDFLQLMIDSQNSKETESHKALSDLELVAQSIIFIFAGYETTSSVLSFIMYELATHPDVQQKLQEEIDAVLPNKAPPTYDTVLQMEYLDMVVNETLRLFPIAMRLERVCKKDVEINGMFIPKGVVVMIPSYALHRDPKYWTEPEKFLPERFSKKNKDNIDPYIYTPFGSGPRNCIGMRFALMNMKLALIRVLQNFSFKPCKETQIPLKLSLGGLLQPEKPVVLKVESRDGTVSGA

CCC1(c2ccccc2)NC(=O)N(CC(=O)Nc2cc(S(=O)(=O)N3CCCCCC3)ccc2OC)C1=O (stereo not given)
CC50 [1]: 29.9 µM (active)

Cc1cc(-n2c(C)cc(C(=O)COC(=O)CNC3=NS(=O)(=O)c4ccccc43)c2C)no1
CC50 [1]: 25.8 µM (active)

Oc1nc(CCl)nc2cc(-c3ccc(Cl)cc3)sc12
EC50 [2]: 1.14 µM (active) | CC50 [1]: 14.5 µM (active) | EC50 [3]: 6.96 µM (active)

COn1c2c(c3c4no[n+]([O-])c4ccc31)CCCC2
CC50 [1]: 16.5 µM (active)

CC(C)(C)c1ccc(OCc2ccc(C(=O)N/N=C/c3ccc([N+](=O)[O-])cc3)o2)cc1
CC50 [1]: 23.3 µM (active)

C(=N\C(/N=C/c1ccco1)c1ccco1)/c1ccco1
EC50 [4]: > 120 µM (not active) | EC50 [5]: 28.9 µM (active) | EC50 (H4): > 120 µM (not active)

O=S(=O)(c1cccc(-c2csc(-c3cccnc3)n2)c1)N1CCCCC1
CC50 [1]: 28.9 µM (active)

O=[N+]([O-])c1ccc2nc(SCc3ccccc3Cl)sc2c1
CC50 [1]: 29 µM (active)

CCOC(=O)c1c(C)[nH]c(/C=N/c2ccc(OC)cc2)c1O
EC50 [4]: 46.9 µM (active) | EC50 [5]: 16.5 µM (active) | EC50 (H4): 4.53 µM (active)

Cc1c(OCC(=O)NCc2cccnc2)ccc2c3c(c(=O)oc12)CCC3
EC50 [4]: > 120 µM (not active) | EC50 [5]: > 120 µM (not active) | EC50 (H4): 15.4 µM (active)

O=C(NCc1nc2ccccc2[nH]1)C1=C[C@@H](c2csc3ccccc23)C[C@@H](OCc2ccc(CO)cc2)O1
CC50 [1]: 39 µM (active)

Cc1ccc(Nc2nc(N)c([N+](=O)[O-])c(NCc3ccco3)n2)cc1
CC50 [1]: > 50 µM (active)

O=C(COC(=O)c1ccccc1C(=O)c1ccccc1)Nc1ccc(SC(F)F)cc1
CC50 [1]: 16.4 µM (active)

Cc1nc(C(=O)Nc2ccccc2)sc1C1(C)CC(c2cccnc2)=NO1 (stereo not given)
EC50 [4]: 30.4 µM (active) | EC50 [5]: 10.1 µM (active) | EC50 (H4): 11.9 µM (active)

Cc1ccc2c(c1)c1c3n2CCN(C(=O)Cn2c(-c4ccccc4)noc2=O)C3CCC1 (stereo not given)
CC50 [1]: 38.8 µM (active)

Nc1nn(-c2ccccc2)nc1C(=O)OCc1ccccc1
EC50 [4]: 13.7 µM (active) | EC50 [5]: > 120 µM (not active) | EC50 (H4): 25.2 µM (active)

COc1ccc(CN(C(=O)CSc2nnc(-c3ccccc3C)o2)c2ccc(F)cc2)cc1
CC50 [1]: 29.4 µM (active) | AC50 [6]: 1.42 µM (active) | EC50 (Protein RecA): 8.86 µM (active)

Cn1cc(/C=C(\NC(=O)c2ccccc2Cl)C(=O)NCCN2CCOCC2)c2ccccc21
EC50 [4]: > 120 µM (not active) | EC50 [5]: > 120 µM (not active) | EC50 (H4): > 120 µM (not active)

Cc1cccc(OCC2=NS(=O)(=O)c3ccccc3N2)c1
EC50 [4]: 9.74 µM (active) | EC50 [5]: > 120 µM (not active) | EC50 (H4): > 120 µM (not active)

N#Cc1ccc(-c2ccc(Cl)cc2)nc1SCC(=O)c1cccc(Cl)c1
EC50 [4]: > 120 µM (not active) | EC50 [5]: > 120 µM (not active) | AC50 (INS1): 3.9 µM (active) | EC50 (H4): > 120 µM (not active)

CC(C)(C)c1ccc(OCc2ccc(C(=O)NCc3cccnc3)o2)cc1
EC50 [4]: 5.94 µM (active) | EC50 [5]: 6.24 µM (active) | EC50 (H4): > 120 µM (not active)

Cn1cc(/C=C2\SC(=O)N(c3ccc(O)cc3)C2=O)c2ccccc21
CC50 [1]: 16 µM (active)

COc1ccccc1N=C(S)NNC(=O)c1ccc(Cl)cc1Cl
EC50 [4]: 31.8 µM (active) | EC50 [5]: 10.9 µM (active) | EC50 (H4): 61.7 µM (active)

Cc1ccc(-c2nn3c(C)nnc3s2)cc1N
CC50 [1]: 22.1 µM (active)

Cc1cc(CNC(=O)c2ccc3nc(Cc4ccccc4F)oc3c2)nn1C
EC50 [4]: 58.7 µM (active) | EC50 [5]: 0.3 µM (active) | EC50 (H4): 7.51 µM (active)

C/C(=N\n1nnnc1Nc1ccccc1)c1ccc(N)cc1
AC50 (Cytochrome P450 1A2): 12.6 µM (inconclusive) | AC50 (Cytochrome P450 2C19): 3.55 µM (inconclusive) | EC50 [4]: > 120 µM (not active) | EC50 [5]: > 120 µM (not active) | AC50 (Cytochrome P450 3A4): 22.4 µM (inconclusive) | EC50 (H4): > 120 µM (not active)

c1ccc2c(-c3nc(-c4ccncc4)no3)cccc2c1
EC50 [4]: > 120 µM (not active) | EC50 [5]: 0.841 µM (active) | EC50 (H4): 51.4 µM (active)

CCn1cnc2cc(NCc3ccccc3Cl)ccc21
CC50 [1]: 25 µM (active)

CC(C)c1ccc(NC(S)=NN2CCOCC2)cc1
EC50 [4]: 17.4 µM (active) | EC50 [5]: 18.4 µM (active) | EC50 (H4): 22.2 µM (active)

C=CCn1cccc(C(=O)Nc2ccc(SC)cc2)c1=O
EC50 [4]: 0.188 µM (active) | EC50 [5]: 0.229 µM (active) | EC50 (H4): 9.44 µM (active)

COc1ccc(S(=O)(=O)n2ccc(-c3ccc4c(c3)CCC(C)(C)O4)n2)cc1
EC50 [4]: 17.2 µM (active) | EC50 [5]: > 120 µM (not active) | EC50 (H4): 43.4 µM (active)

Cc1ccccc1OCc1nc(-c2ccc(NC(=O)c3cccs3)cc2)no1
EC50 [4]: 28.5 µM (active) | EC50 [5]: 23.8 µM (active) | EC50 (H4): 1.46 µM (active)

Cc1c(C(=O)NNC(=O)Nc2ccc([N+](=O)[O-])cc2)oc2ccccc12
CC50 [1]: > 50 µM (active)

— ChEMBL document CHEMBL1201862, “PubChem BioAssay data set” (2004)
